Results on one compound are retold here after patent publication US20250186379A1, “METHODS AND AGENTS FOR DECREASING INSULIN RESISTANCE” (Whitehead Institute for Biomedical Research, priority 2021, published 2025).

The structures appear in SMILES notation.

Assay [1] relates to IR-FKBP. As to the kind of experiment: Western blotting and imaging of IR activity in HepG2 cells expressing IR-GFP-FKBP. The format is cell-based, human. To be noted: 5 μM AP1903 16 hours vs DMSO. An excerpt:
For experiments that forced reduction in IR condensate dynamics, the vector used in this assay was modified from pJH135_pb_MCPx2_mCherry_rTTA vector^11. IR-mEGFP-FKBP, which consists of the insulin receptor cDNA, flexible linker 1, mEGFP, flexible linker 2, and four copies of FKBP, was cloned into PmeI and NheI digested pJH135_pb_MCPx2_mCherry_rTTA using Gibson cloning by following the manufacturer's instructions (NEB, E2621S). This vector is called JP204 pb_TetON_INSR_2A_GFP_Dmbr4.
For experiments that forced reduction in IR condensate dynamics, 1×10^5 cells/cm^2 HepG2 cells were transfected with 0.07 μg/cm^2 pJP204_pb_TetON_INSR_2A_GFP_Dmbr4 using Lipofectamine 3000 (Invitrogen, L3000). On day 2, the cells were treated with 100 ng/ml doxycycline (Sigma, D9891-5G). […]
Cells were washed with ice-cold PBS (Life Technologies, AM9625) and lysed in Cell Lytic M (Sigma Aldrich C2978) supplemented with protease and phosphatase inhibitors (Sigma Aldrich, 11873580001 and 4906837001) directly on the wells. […] Super natant was collected and protein concentration was determined using a BCA Protein Assay Kit (Life Technologies, 23250) according to the manufacturer's instructions. […] Immunoblot quantification was performed using the “analyze gel” tool on Fiji/ImageJ v2.1.0/153c.
To quantify pIRS1 fluorescent signal in IR puncta/condensates manually, Airyscan images were opened on Fiji as composite images. […]

Assay [2] has as its system IR-FKBP condensates. Nature of the assay: tc-PALM of IR-Dendra2-FKBP condensate lifetime in HepG2 cells. The format is cell-based, human. To be noted: HepG2 cells expressing IR-FKBP; 5 μM AP1903 16 hours vs DMSO. An excerpt: A CRISPR/Cas9 system was used to generate genetically modified HepG2 cell lines. Target sequences were cloned into a plasmid containing sgRNA backbone, a codon-optimized version of Cas9 and mCherry. For IR targeting, two Cas9 gRNAs were used. For the generation of the IR-mEGFP, IR-Dendra2, and IR-Dendra2-FKBP endogenously tagged lines, homology directed repair templates were cloned into pUC19 using NEBuilder HiFi DNA Assembly Master Mix (NEB, E2621S). For IR-mEGFP and IR-Dendra2 cell lines, the homology repair template consisted of mEGFP or Dendra2 cDNA sequence flanked on either side by 800 bp homology arms amplified from HepG2 genomic DNA using PCR (FIG. 27A). […]
Widefield, live-cell, super-resolution imaging was performed in a photo-activation localization microscopy (PALM) approach using a Nikon Eclipse Ti microscope with a 100× oil immersion objective. […] During each imaging cycle, a 2400-frame video stream including a (256 pixel)^2 region of interest (ROI) was recorded in 20 Hz acquisition rate with the EM-gain setting as 1000 on an Andor iXon Ultra 897 EMCCD. […]
Temporal clustering: For each spatial cluster, time-correlated PALM (tc-PALM) analysis was performed along the time axis to extract the truly colocalized, time-correlated multi-molecule bursting events. […] More details about the quantitative validations and statistics of tc-PALM analysis can be found in FIG. 30.

As for `CC[C@H](C(=O)N1CCCC[C@H]1C(=O)O[C@H](CCc1ccc(OC)c(OC)c1)c1cccc(OCC(=O)NCCNC(=O)COc2cccc([C@@H](CCc3ccc(OC)c(OC)c3)OC(=O)[C@@H]3CCCCN3C(=O)[C@@H](CC)c3cc(OC)c(OC)c(OC)c3)c2)c1)c1cc(OC)c(OC)c(OC)c1` [AP1903], the “IR functional activity (pIR-FKBP, pIRS1)” value in assay [1] is “less functionally active”. Also, the “lifetime of IR condensates” value in assay [2] was “significantly increased the lifetime of IR condensates”.
